The source made the active and inactive calls. The rule behind the calls is not given here.
Tests used:
[1] = biological target: T1, Metabotropic glutamate receptor 5 (Homo sapiens, UniProt P41594); test: Negative allosteric modulation of human mGluR5 expressed in HEK293 cells assessed as inhibition of L-glutamate-induced calcium mobilization at 10 uM by FLIPR assay relative to control; assay type: functional, cell-based
Target sequence in this assay (P41594 21-1212 limits assumed): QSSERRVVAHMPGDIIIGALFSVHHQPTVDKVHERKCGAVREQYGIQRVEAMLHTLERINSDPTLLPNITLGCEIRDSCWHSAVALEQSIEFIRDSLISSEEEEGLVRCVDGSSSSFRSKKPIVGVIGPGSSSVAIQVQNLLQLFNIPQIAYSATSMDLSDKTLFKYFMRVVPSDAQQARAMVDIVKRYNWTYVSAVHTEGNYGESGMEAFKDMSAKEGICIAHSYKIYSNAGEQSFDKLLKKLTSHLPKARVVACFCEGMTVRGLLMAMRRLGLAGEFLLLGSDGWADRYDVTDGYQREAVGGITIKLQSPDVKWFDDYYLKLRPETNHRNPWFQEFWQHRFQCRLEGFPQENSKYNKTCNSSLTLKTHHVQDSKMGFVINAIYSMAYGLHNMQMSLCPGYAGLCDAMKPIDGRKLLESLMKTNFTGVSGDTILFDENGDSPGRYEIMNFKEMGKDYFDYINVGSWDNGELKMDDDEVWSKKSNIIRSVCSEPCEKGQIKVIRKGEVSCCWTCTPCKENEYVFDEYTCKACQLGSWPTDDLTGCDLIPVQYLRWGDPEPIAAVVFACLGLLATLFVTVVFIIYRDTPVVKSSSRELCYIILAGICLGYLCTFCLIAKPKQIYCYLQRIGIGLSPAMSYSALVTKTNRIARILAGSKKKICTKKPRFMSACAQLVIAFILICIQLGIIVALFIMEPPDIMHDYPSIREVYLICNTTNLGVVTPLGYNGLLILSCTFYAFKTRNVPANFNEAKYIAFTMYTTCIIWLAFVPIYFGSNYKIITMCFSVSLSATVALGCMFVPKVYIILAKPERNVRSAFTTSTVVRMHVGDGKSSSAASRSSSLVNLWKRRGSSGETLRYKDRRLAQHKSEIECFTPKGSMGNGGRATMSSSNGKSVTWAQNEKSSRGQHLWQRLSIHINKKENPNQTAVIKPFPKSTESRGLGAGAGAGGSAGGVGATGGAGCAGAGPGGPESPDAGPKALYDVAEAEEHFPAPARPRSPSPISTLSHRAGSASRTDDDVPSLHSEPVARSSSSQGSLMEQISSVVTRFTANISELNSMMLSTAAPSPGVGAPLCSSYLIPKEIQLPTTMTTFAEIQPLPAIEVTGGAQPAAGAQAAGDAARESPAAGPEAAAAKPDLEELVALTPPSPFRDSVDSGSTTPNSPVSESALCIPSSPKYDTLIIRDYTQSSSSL

[2] = biological target: T1, Metabotropic glutamate receptor 5; test: Displacement of [3H]-MPEP from human mGluR5 expressed in HEK293 cells after 2 hrs; assay type: cell-based
Target sequence in this assay (P41594 whole entry): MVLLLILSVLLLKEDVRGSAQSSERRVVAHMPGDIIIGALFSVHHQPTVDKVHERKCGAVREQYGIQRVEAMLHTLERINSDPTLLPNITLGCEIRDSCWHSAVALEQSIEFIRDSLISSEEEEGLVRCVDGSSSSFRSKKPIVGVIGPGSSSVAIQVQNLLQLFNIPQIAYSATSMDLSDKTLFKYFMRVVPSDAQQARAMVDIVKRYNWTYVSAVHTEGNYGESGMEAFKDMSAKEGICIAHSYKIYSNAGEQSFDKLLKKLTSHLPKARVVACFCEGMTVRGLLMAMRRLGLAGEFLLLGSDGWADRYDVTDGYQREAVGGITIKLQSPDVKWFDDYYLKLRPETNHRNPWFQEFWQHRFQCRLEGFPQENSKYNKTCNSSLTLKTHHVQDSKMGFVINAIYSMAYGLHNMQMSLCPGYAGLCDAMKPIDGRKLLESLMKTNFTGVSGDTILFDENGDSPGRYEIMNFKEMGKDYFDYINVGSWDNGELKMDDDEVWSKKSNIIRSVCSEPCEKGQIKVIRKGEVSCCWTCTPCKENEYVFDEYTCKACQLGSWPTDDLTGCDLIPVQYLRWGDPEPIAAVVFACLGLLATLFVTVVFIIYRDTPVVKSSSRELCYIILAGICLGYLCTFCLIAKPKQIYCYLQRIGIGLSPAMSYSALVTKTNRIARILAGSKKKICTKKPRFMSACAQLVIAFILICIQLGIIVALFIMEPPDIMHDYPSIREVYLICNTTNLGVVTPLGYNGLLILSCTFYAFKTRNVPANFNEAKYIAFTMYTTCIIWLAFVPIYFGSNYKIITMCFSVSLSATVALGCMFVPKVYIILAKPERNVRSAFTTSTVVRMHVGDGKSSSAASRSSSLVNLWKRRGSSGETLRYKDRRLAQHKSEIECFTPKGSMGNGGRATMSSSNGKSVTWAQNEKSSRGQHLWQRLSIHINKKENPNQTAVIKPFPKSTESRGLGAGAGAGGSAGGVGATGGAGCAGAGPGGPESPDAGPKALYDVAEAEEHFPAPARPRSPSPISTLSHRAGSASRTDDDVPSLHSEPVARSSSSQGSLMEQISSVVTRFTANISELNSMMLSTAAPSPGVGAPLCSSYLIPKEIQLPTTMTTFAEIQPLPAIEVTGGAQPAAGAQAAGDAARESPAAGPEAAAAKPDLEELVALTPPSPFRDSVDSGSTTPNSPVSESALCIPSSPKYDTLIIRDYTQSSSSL

[3] = biological target: T1, Metabotropic glutamate receptor 5; test: Negative allosteric modulation of human mGluR5 expressed in HEK293 cells assessed as inhibition of L-glutamate-induced calcium mobilization by FLIPR assay; assay type: functional, cell-based
Target sequence in this assay (P41594 whole entry): as above

[4] = biological target: T1, Metabotropic glutamate receptor 5; test: Positive allosteric modulation of human mGluR5 expressed in HEK293 cells assessed as increase of L-glutamate-induced calcium mobilization at 10 uM by FLIPR assay relative to L-glutamate; assay type: functional, cell-based
Target sequence in this assay (P41594 21-1212 limits assumed): as the sequence (P41594 21-1212 limits assumed) above

[5] = biological target: T1, Metabotropic glutamate receptor 5; test: Positive allosteric modulation of human mGluR5 expressed in HEK293 cells assessed as increase of L-glutamate-induced calcium mobilization by FLIPR assay; assay type: functional, cell-based
Target sequence in this assay (P41594 whole entry): as the sequence (P41594 whole entry) above

CN1CCc2nc(C#Cc3ccccn3)ccc2C1=O
Imax [1]: 92%
Ki [2]: 6240 nM
IC50 ([3]; read-out: IC50): 184 nM

CNC(=O)c1ccc(C#Cc2ccccc2)nc1
Ki [2]: 15000 nM

Cc1cccc(C#Cc2ccc3c(n2)CCN(C(C)C)C3=O)c1
Imax [1]: 88%
Ki [2]: 510 nM
IC50 ([3]; read-out: IC50): 4.8 nM

CC(C)NC(=O)c1ccc(C#Cc2ccccc2)nc1
Emax [4]: 61%
EC50 ([5]; read-out: EC50): 62 nM
Ki [2]: 7100 nM

O=C1c2ccc(C#Cc3ccccn3)nc2CCN1C1CCCC1
Imax [1]: 80%
Ki [2]: 1770 nM
IC50 ([3]; read-out: IC50): 199 nM

CC(C)N1CCc2nc(C#Cc3cccs3)ccc2C1=O
Imax [1]: 78%
Ki [2]: 1930 nM
IC50 ([3]; read-out: IC50): 45 nM

CC(C)N1CCc2nc(C#Cc3cccnc3)ccc2C1=O
EC50 ([5]; hek293): Not Active
Ki [2]: 19600 nM
IC50 ([3]; hek293): Not Active

O=C1c2ccc(C#Cc3cccnc3)nc2CCN1C1CCCC1
Emax [4]: 68%
EC50 ([5]; read-out: EC50): 748 nM
Ki [2]: > 32000 nM

Cc1cccc(C#Cc2ccc3c(n2)CCN(C2CCCCC2)C3=O)c1
Emax [4]: 54%
EC50 ([5]; read-out: EC50): 36 nM
Ki [2]: 3210 nM

Cc1ccccc1C#Cc1ccc2c(n1)CCN(C1CCCCC1)C2=O
Emax [4]: 62%
EC50 ([5]; read-out: EC50): 466 nM
Ki [2]: > 32000 nM

Cc1ccc(C#Cc2ccc3c(n2)CCN(C2CCCCC2)C3=O)cc1
Ki [2]: 27200 nM

CN1CCc2nc(C#Cc3cccc(Cl)c3)ccc2C1=O
Imax [1]: 84%
Ki [2]: 250 nM
IC50 ([3]; read-out: IC50): 22 nM

Cc1cccc(C#Cc2ccc3c(n2)CCN(C)C3=O)c1
Imax [1]: 86%
Ki [2]: 820 nM
IC50 ([3]; read-out: IC50): 2.9 nM

COc1cccc(C#Cc2ccc3c(n2)CCN(C)C3=O)c1
Imax [1]: 88%
Ki [2]: 3660 nM
IC50 ([3]; read-out: IC50): 293 nM

Cc1ccc(C#Cc2ccc3c(n2)CCN(C2CCCC2)C3=O)cc1
Emax [4]: 97%
EC50 ([5]; read-out: EC50): 4820 nM
Ki [2]: > 32000 nM

O=C1c2ccc(C#Cc3cccnc3)nc2CCN1C1CCCCC1
Emax [4]: 73%
EC50 ([5]; read-out: EC50): 387 nM
Ki [2]: 15600 nM

COc1cccc(C#Cc2ccc3c(n2)CCN(C(C)C)C3=O)c1
Imax [1]: 88%
Ki [2]: 2950 nM
IC50 ([3]; read-out: IC50): 111 nM

CC(C)N1CCc2nc(C#Cc3cccc(Cl)c3)ccc2C1=O
Imax [1]: 86%
Ki [2]: 100 nM
IC50 ([3]; read-out: IC50): 5.7 nM

COc1cccc(C#Cc2ccc3c(n2)CCN(C2CCCC2)C3=O)c1
Emax [4]: 25%
EC50 ([5]; read-out: EC50): 462 nM
Ki [2]: > 32000 nM

O=C(NC1CCCC1)c1ccc(C#Cc2ccccc2)nc1
Emax [4]: 106%
EC50 ([5]; read-out: EC50): 19 nM
Ki [2]: 3300 nM

CN1CCc2nc(C#Cc3cccnc3)ccc2C1=O
EC50 ([5]; hek293): Not Active
Ki [2]: 27400 nM
IC50 ([3]; hek293): Not Active

CN1CCc2nc(C#Cc3ccccc3)ccc2C1=O
Imax [1]: 58%
Ki [2]: 760 nM
IC50 ([3]; read-out: IC50): 30 nM

CC(C)N1CCc2nc(C#Cc3ccccc3Cl)ccc2C1=O
Imax [1]: 61%
Ki [2]: 5680 nM
IC50 ([3]; read-out: IC50): 2520 nM

Cc1ccccc1C#Cc1ccc2c(n1)CCN(C)C2=O
Imax [1]: 80%
Ki [2]: > 32000 nM
IC50 ([3]; read-out: IC50): 776 nM

O=C(NC1CCCC1)c1ccc(C#Cc2ccccn2)nc1
Imax [1]: 90%
Ki [2]: 7600 nM
IC50 ([3]; read-out: IC50): 227 nM

CN1CCc2nc(C#Cc3ccccc3Cl)ccc2C1=O
Imax [1]: 70%
Ki [2]: 7900 nM
IC50 ([3]; read-out: IC50): 916 nM

O=C1c2ccc(C#Cc3ccccc3)nc2CCN1C1CCCCC1
Emax [4]: 122%
EC50 ([5]; read-out: EC50): 40 nM
Ki [2]: 12400 nM

O=C1c2ccc(C#Cc3cccs3)nc2CCN1C1CCCC1
Emax [4]: 103%
EC50 ([5]; read-out: EC50): 12 nM
Ki [2]: 2840 nM

CN1CCc2nc(C#Cc3ccc(Cl)cc3)ccc2C1=O
Imax [1]: 73%
Ki [2]: 6150 nM
IC50 ([3]; read-out: IC50): 352 nM

O=C1c2ccc(C#Cc3cccc(Cl)c3)nc2CCN1C1CCCC1
Emax [4]: 87%
EC50 ([5]; read-out: EC50): 33 nM
Ki [2]: 5230 nM

COc1cccc(C#Cc2ccc3c(n2)CCN(C2CCCCC2)C3=O)c1
Ki [2]: 23200 nM

O=C1c2ccc(C#Cc3ccccc3Cl)nc2CCN1C1CCCC1
Emax [4]: 115%
EC50 ([5]; read-out: EC50): 393 nM
Ki [2]: > 32000 nM

CN1CCc2nc(C#Cc3cccs3)ccc2C1=O
Imax [1]: 49%
Ki [2]: 2170 nM
IC50 ([3]; read-out: IC50): 451 nM

O=C1c2ccc(C#Cc3cccc(Cl)c3)nc2CCN1C1CCCCC1
Emax [4]: 47%
EC50 ([5]; read-out: EC50): 171 nM
Ki [2]: 12000 nM

O=C1c2ccc(C#Cc3ccccc3)nc2CCN1C1CCCC1
Emax [4]: 109%
EC50 ([5]; read-out: EC50): 5.9 nM
Ki [2]: 890 nM

CC(C)N1CCc2nc(C#Cc3ccccc3)ccc2C1=O
Imax [1]: 60%
Ki [2]: 1280 nM
IC50 ([3]; read-out: IC50): 706 nM

Cc1ccc(C#Cc2ccc3c(n2)CCN(C)C3=O)cc1
Imax [1]: 68%
Ki [2]: 7450 nM
IC50 ([3]; read-out: IC50): 1400 nM

O=C1c2ccc(C#Cc3cccs3)nc2CCN1C1CCCCC1
Emax [4]: 112%
EC50 ([5]; read-out: EC50): 13 nM
Ki [2]: 720 nM

Cc1ccc(C#Cc2ccc3c(n2)CCN(C(C)C)C3=O)cc1
Emax [4]: 28%
EC50 ([5]; read-out: EC50): 1010 nM
Ki [2]: 20200 nM

Cc1ccccc1C#Cc1ccc2c(n1)CCN(C1CCCC1)C2=O
Emax [4]: 107%
EC50 ([5]; read-out: EC50): 239 nM
Ki [2]: 18800 nM

O=C1c2ccc(C#Cc3ccccc3Cl)nc2CCN1C1CCCCC1
Emax [4]: 68%
EC50 ([5]; read-out: EC50): 924 nM
Ki [2]: > 32000 nM

O=C1c2ccc(C#Cc3ccc(Cl)cc3)nc2CCN1C1CCCC1
Emax [4]: 98%
EC50 ([5]; read-out: EC50): 979 nM
Ki [2]: > 32000 nM

O=C1c2ccc(C#Cc3ccccn3)nc2CCN1C1CCCCC1
Imax [1]: 74%
Ki [2]: 2240 nM
IC50 ([3]; read-out: IC50): 518 nM

O=C(NC1CCCC1)c1ccc(C#Cc2cccnc2)nc1
Emax [4]: 68%
EC50 ([5]; read-out: EC50): > 10000 nM
Ki [2]: > 32000 nM

Cc1cccc(C#Cc2ccc3c(n2)CCN(C2CCCC2)C3=O)c1
Emax [4]: 97%
EC50 ([5]; read-out: EC50): 7.5 nM
Ki [2]: 670 nM

O=C1c2ccc(C#Cc3ccc(Cl)cc3)nc2CCN1C1CCCCC1
Emax [4]: inactive
EC50 ([5]; hek293): Not Active
Imax [1]: inactive
Ki [2]: > 32000 nM
IC50 ([3]; hek293): Not Active

Cc1ccccc1C#Cc1ccc2c(n1)CCN(C(C)C)C2=O
Imax [1]: 76%
Ki [2]: > 32000 nM
IC50 ([3]; read-out: IC50): 810 nM

CC(C)N1CCc2nc(C#Cc3ccc(Cl)cc3)ccc2C1=O
Imax [1]: 61%
Ki [2]: 27100 nM
IC50 ([3]; read-out: IC50): 4230 nM

CC(C)N1CCc2nc(C#Cc3ccccn3)ccc2C1=O
Imax [1]: 89%
Ki [2]: 2740 nM
IC50 ([3]; read-out: IC50): 27 nM
